Experimental data published in patent publication US8163909B2, “Substituted hydroxyethyl amine compounds as beta-secretase modulators and methods of use” (Amgen Inc., priority 2007, dated 2012).

Assays:
[1] = biological target: Beta Secretase enzyme (BACE) (Homo sapiens, UniProt P56817); test: In vitro enzymatic BACE FRET (fluorescence resonance energy transfer) assay; format: biochemical; conditions: BACE enzyme assay IC50; read-out: BACE1 FRET assay;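 further: fluorescence read after 1 h with 50 nM quenched peptide substrate spanning the BACE cleavage site, in pH 4.2 acetate buffer containing 10% DMSO and nonionic detergent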
Sequence of Beta Secretase enzyme (BACE) (P56817 46-501): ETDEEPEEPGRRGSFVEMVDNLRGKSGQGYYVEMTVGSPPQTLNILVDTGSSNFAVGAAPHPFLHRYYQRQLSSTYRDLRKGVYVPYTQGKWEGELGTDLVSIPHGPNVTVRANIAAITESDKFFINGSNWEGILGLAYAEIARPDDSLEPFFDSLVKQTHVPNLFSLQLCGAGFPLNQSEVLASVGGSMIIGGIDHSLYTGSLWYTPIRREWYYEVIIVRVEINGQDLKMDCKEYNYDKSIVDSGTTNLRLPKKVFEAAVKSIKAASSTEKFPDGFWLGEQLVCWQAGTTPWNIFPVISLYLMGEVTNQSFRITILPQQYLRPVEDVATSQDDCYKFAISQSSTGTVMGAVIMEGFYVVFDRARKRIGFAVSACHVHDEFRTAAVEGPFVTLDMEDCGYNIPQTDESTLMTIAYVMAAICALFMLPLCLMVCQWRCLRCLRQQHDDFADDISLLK

[2] = tested on: Aβ40 in conditioned medium of cells stably expressing Amyloid Precursor Protein (APP); test: In vitro BACE cell-based assay (Aβ40 in conditioned medium, sandwich ELISA); conditions: Homo sapiens, HEK293, HEK cell-based assay IC50; read-out: HEK cell assay;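 further: compounds added as a dilution series, secreted peptide quantified by europium time-resolved fluorescence readout, potency fitted from percent of control versus compound concentration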
CYP3A4 (CYP3A) = CYP3A4 (CYP3A) (Homo sapiens, UniProt P08684); test: in vitro; conditions: microsomes, pH 7.4;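 further: inhibition of CYP3A-mediated 1-hydroxymidazolam formation after 10 min incubation with NADPH, quantified by HPLC MS relative to metabolite produced without test compound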
Sequence of CYP3A4 (CYP3A) (P08684 2-503): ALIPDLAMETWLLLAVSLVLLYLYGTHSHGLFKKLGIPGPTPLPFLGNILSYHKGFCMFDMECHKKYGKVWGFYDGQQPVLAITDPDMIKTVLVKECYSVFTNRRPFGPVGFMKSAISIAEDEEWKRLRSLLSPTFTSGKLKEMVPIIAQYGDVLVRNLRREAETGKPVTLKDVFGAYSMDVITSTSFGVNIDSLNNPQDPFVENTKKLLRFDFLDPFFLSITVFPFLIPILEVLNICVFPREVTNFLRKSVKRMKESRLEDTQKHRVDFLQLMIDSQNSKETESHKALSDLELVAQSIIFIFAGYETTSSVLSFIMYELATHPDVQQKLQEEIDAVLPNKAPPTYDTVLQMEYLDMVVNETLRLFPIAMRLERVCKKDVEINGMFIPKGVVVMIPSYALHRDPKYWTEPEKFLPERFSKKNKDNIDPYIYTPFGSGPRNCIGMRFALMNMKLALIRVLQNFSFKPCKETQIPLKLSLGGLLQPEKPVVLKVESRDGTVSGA

[3] = Microsomal stability assay, rat liver microsomes; conditions: rat liver microsomes;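 further: rat liver microsomes (0.25 mg/mL) with about 1 µM compound plus 1 mM NADPH, pH 7.4, 37 °C for 30 min, parent left measured by LC-MS/MS against 0 min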
[4] = Microsomal stability assay, human liver microsomes; conditions: human liver microsomes;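 further: pooled human liver microsomes at 0.25 mg/mL with 1 µM compound and NADPH at 37 °C, pH 7.4, for 30 min, unchanged parent quantified by LC-MS/MS against the 0 min sample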
CYP2D6 = CYP2D6 (Homo sapiens, UniProt P10635); test: CYP2D6 inhibition assay (bufuralol, pooled human liver microsomes); conditions: 2D6 IC50 (uM), CYP2D6 inhibition
Sequence of CYP2D6 (P10635 whole entry): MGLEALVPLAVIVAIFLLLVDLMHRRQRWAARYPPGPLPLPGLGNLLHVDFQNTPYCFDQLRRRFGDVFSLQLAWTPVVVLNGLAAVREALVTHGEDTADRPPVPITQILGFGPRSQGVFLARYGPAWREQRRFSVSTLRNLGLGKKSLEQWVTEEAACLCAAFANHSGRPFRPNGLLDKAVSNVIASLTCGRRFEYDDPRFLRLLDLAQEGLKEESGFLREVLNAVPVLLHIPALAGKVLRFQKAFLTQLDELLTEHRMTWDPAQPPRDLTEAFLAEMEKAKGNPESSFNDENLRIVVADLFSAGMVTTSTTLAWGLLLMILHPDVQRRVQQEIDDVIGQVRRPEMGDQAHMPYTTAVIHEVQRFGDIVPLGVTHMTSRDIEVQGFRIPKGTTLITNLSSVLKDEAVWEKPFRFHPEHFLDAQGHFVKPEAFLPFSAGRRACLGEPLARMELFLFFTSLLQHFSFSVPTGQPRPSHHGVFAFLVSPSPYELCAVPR

SMILES | IC50 [1] [nM] | IC50 [2] [nM] | IC50 (CYP3A4 (CYP3A)) [nM] | RLM [3] [µL/min/mg] | HLM [4] [µL/min/mg] | IC50 (CYP2D6) [µM]
CC(=O)N[C@@H](Cc1cc(F)cc(-c2cscn2)c1)[C@H](O)CN[C@H]1CC2(CCC2)Oc2ncc(CC(C)(C)C)cc21 [compound 672] | 4 | 5 | 400 | 134 | 358 | 2.7
CO[C@H](C)C(=O)N[C@@H](Cc1ccc2c(c1)OCO2)[C@H](O)CN[C@H]1CC(C)(C)Oc2ncc(CC(C)(C)C)cc21 [compound 674] | 33 | 37 | 100 | 128 | 26 | 10.5
CO[C@H](C)C(=O)N[C@@H](Cc1ccc(F)c(F)c1)[C@H](O)CN[C@H]1CC(C)(C)Oc2ncc(CC(C)(C)C)cc21 [compound 675] | 9 | 13 | 2000 | 411 | 543 | 21.8
COCC(=O)N[C@@H](Cc1ccc(F)c(F)c1)[C@H](O)CN[C@H]1CC(C)(C)Oc2ncc(CC(C)(C)C)cc21 [compound 676] | 10 | 11 | 2000 | 411 | 463 | 2.9
CC(=O)N[C@@H](Cc1ccc2c(c1)OCO2)[C@H](O)CN[C@H]1CC(C)(C)Oc2ncc(CC(C)(C)C)cc21 [compound 679] | 19 | 12 | 200 | 138 | 24 | 5.7
CNc1nc(CC(C)C)cc2c1OC1(CCC1)C[C@@H]2NC[C@@H](O)[C@H](Cc1ccc2c(c1)OCO2)NC(=O)[C@@H](C)OC [compound 680] | 140 | 25 | 500 | 317 | 220 | 14
CNc1nc(CC(C)C)cc2c1OC1(CCC1)C[C@@H]2NC[C@@H](O)[C@H](Cc1ccc2c(c1)OCO2)NC(=O)COC [compound 681] | 64 | 14 | 800 | 392 | 197 | 9.2
COCC(=O)N[C@@H](Cc1ccc(F)c(-c2cscn2)c1)[C@H](O)CN[C@H]1CC2(CCC2)Oc2ncc(CC(C)(C)C)cc21 [compound 683, N-((1S,2R)-3-(((4′S)-6′-(2,2-dimethylpropyl)-3′,4′-dihydrospiro[cyclobutane-1,2′-pyrano[2,3-b]pyridin]-4′-yl)amino)-1-(4-fluoro-3-(1,3-thiazol-4-yl)benzyl)-2-hydroxypropyl)-2-methoxyacetamide] | 9 | 31 | 200 | 61 | 102 | 2.3
COCC(=O)N[C@@H](Cc1ccc(F)c(-c2cncs2)c1)[C@H](O)CN[C@H]1CC2(CCC2)Oc2ncc(CC(C)(C)C)cc21 [compound 684, N-((1S,2R)-3-(((4′S)-6′-(2,2-dimethylpropyl)-3′,4′-dihydrospiro[cyclobutane-1,2′-pyrano[2,3-b]pyridin]-4′-yl)amino)-1-(4-fluoro-3-(1,3-thiazol-5-yl)benzyl)-2-hydroxypropyl)-2-methoxyacetamide] | 5 | 12 | 100 | 114 | 56 | 0.2
Cc1cccc(CN2CCO[C@@H](C(=O)N[C@@H](Cc3ccc(F)cc3)[C@H](O)CN[C@H]3CC4(CCC4)Oc4ncc(CC(C)(C)C)cc43)C2)c1 [compound 685] | 13 | 12 | 200 | 283 | 662 | 3.1
CO[C@H](C)C(=O)N[C@@H](Cc1cc(F)cc(F)c1)[C@H](O)CN[C@H]1CC2(CCC2)Oc2c1cc(CC(C)C)nc2Cl [compound 686] | 3 | 52 | 200 | 399 | 921 | 6.1
CO[C@H](C)C(=O)N[C@@H](Cc1cc(F)cc(F)c1)[C@H](O)CN[C@H]1CC2(CCC2)Oc2cnc(CC(C)C)cc21 [compound 688] | 9 | 36 | 200 | 399 | 921 | 3
C#Cc1cc2c(c(-n3ccnc3)c1)OC1(CCC1)C[C@@H]2NC[C@@H](O)[C@H](Cc1cc(F)cc(F)c1)NC(=O)COC [compound 689] | 38 | 27 | ≤ 30 | 44.5 | 18.5 | 0.2
Cc1cccc(CN2CCO[C@H](C(=O)N[C@@H](Cc3ccc(F)cc3)[C@H](O)CN[C@H]3CC4(CCC4)Oc4ncc(CC(C)(C)C)cc43)C2)c1 [compound 691] | 78 | 104 | 200 | 426 | 543 | 3
Cc1ccccc1CN1CCO[C@@H](C(=O)N[C@@H](Cc2ccc(F)cc2)[C@H](O)CN[C@H]2CC3(CCC3)Oc3ncc(CC(C)(C)C)cc32)C1 [compound 692] | 13 | 24 | 200 | 590 | 706 | 5.1
CC(=O)N[C@@H](Cc1ccc(-c2cscn2)cc1)[C@H](O)CN[C@H]1CC2(CCC2)Oc2ncc(CC(C)(C)C)cc21 [compound 693] | 43 | 60 | 200 | 63 | 110 | 2.9
CC(=O)N[C@@H](Cc1ccc(-c2cncs2)cc1)[C@H](O)CN[C@H]1CC2(CCC2)Oc2ncc(CC(C)(C)C)cc21 [compound 694] | 74 | 71 | 200 | 66 | 82 | 0.3
Cc1ccccc1CN1CCO[C@H](C(=O)N[C@@H](Cc2ccc(F)cc2)[C@H](O)CN[C@H]2CC3(CCC3)Oc3ncc(CC(C)(C)C)cc32)C1 [compound 697] | 87 | 143 | 200 | 399 | 775 | 2.7
COCC(=O)N[C@H](Cc1cccc(-c2nccs2)c1)[C@@H](O)CN[C@H]1CC2(CCC2)Oc2ccc(CC(C)(C)C)cc21 [compound 701, N-((1R,2S)-3-(((4S)-6-(2,2-dimethylpropyl)-3,4-dihydrospiro[chromene-2,1′-cyclobutan]-4-yl)amino)-2-hydroxy-1-(3-(1,3-thiazol-2-yl)benzyl)propyl)-2-methoxyacetamide] | 8 | 33 | 200 | 160 | 137 | 0.7
CC(=O)N[C@@H](Cc1ccc(F)cc1)[C@H](O)CN[C@H]1CC2(CCNC2)Oc2cnc(CC(C)(C)C)cc21 (stereo partly drawn) [compound 702] | 36400 | 454 | 1800 | 26 | 14 | 13.5
CO[C@H](C)C(=O)N[C@@H](Cc1cc(F)cc(F)c1)[C@H](O)CN[C@H]1CC2(CCC2)Oc2c1cc(CC(C)C)nc2-c1nccn1C [compound 704] | 30 | 24 | ≤ 30 | 44 | 20 | ≥ 27
COCC(=O)N[C@@H](Cc1cc(F)cc(F)c1)[C@H](O)CN[C@H]1CC2(CCC2)Oc2c1cc(C1CC1)cc2-n1ccnc1 [compound 706] | 62 | 20 | 100 | 33 | 41 | 0.3
CO[C@H](C)C(=O)N[C@@H](Cc1cc(F)cc(F)c1)[C@H](O)CN[C@H]1CC2(CCC2)Oc2c1cc(C1CC1)cc2-n1ccnc1 [compound 707] | 114 | 28 | ≤ 30 | 39 | 14 | 0.6
Cc1ccc(CN2CCO[C@H](C(=O)N[C@@H](Cc3ccc(F)cc3)[C@H](O)CN[C@H]3CC4(CCC4)Oc4ncc(CC(C)(C)C)cc43)C2)cc1 [compound 708] | 154 | 257 | 200 | 278 | 310 | 6.8
Cc1ccc(CN2CCO[C@@H](C(=O)N[C@@H](Cc3ccc(F)cc3)[C@H](O)CN[C@H]3CC4(CCC4)Oc4ncc(CC(C)(C)C)cc43)C2)cc1 [compound 709] | 28 | 38 | 300 | 375 | 614 | 3.7
CC(C)(C)Cc1cnc2c(c1)[C@@H](NC[C@@H](O)[C@H](Cc1ccc(F)cc1)NC(=O)[C@@H]1CN(Cc3ccccc3)CCO1)CC1(CCC1)O2 [compound 711] | 40 | 124 | 300 | 399 | 706 | 8.2
